From ChEMBL document CHEMBL5325497, “Facilitated Drug Repurposing with Artemisinin-Derived PROTACs: Unveiling PCLAF as a Therapeutic Target” (J Med Chem, 2023)
Calls of active or inactive are those of the source. No cut-off for these calls is given here.

What was measured:
RS4-11 [1] = assay: Antiproliferative activity against human RS4-11 cells assessed as cell growth inhibition incubated for 48 hrs by CCK8 colorimetric assay; type: functional, cell-based; conditions: RS4-11, 48 h
U-266 = assay: Antiproliferative activity against human U266B1 cells assessed as cell growth inhibition incubated for 48 hrs by CCK8 colorimetric assay; type: functional, cell-based; conditions: U-266, 48 h
RPMI-8226 = assay: Antiproliferative activity against human RPMI-8226 cells assessed as cell growth inhibition incubated for 48 hrs by CCK8 colorimetric assay; type: functional, cell-based; conditions: RPMI-8226, 48 h
[2] = molecular target: T1, Protein cereblon/PCNA-associated factor (Homo sapiens, UniProt Q15004+Q96SW2); assay: PROTAC activity at CRBN/PCLAF in human RS4-11 cells assessed as maximal degradation of PCLAF protein by Western blotting analysis relative to control; type: cell-based
Target sequence in this assay (Q96SW2 whole entry, looked up, one chain of several): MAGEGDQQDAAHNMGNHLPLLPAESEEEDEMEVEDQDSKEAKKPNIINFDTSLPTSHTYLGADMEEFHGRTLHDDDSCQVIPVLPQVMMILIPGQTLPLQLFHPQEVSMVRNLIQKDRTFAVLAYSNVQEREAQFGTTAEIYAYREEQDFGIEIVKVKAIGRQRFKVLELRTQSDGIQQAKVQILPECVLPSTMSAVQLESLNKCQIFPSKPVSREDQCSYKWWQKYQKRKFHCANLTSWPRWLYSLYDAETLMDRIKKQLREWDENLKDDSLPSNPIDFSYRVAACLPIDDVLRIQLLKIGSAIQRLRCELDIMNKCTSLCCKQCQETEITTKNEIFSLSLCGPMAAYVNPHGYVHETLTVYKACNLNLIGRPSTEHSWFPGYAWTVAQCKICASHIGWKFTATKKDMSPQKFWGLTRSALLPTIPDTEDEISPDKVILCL

[3] = molecular target: T1, Protein cereblon/PCNA-associated factor; assay: PROTAC activity at CRBN/PCLAF in human RS4-11 cells assessed as downregulation of Rb phosphorylation at 10 to 100 nM by Western blotting analysis; type: cell-based; conditions: dose 10-100 nM
Target sequence in this assay (Q96SW2 whole entry, looked up, one chain of several): as above

[4] = molecular target: T1, Protein cereblon/PCNA-associated factor; assay: PROTAC activity at CRBN/PCLAF in human RS4-11 cells assessed as degradation of PCLAF protein at 4 hr by Western blotting analysis; type: cell-based
Target sequence in this assay (Q96SW2 whole entry, looked up, one chain of several): as above

[5] = molecular target: T1, Protein cereblon/PCNA-associated factor; assay: PROTAC activity at CRBN/PCLAF in human RS4-11 cells assessed as degradation of PCLAF protein at 10 to 100 nM by Western blotting analysis; type: cell-based; conditions: dose 10-100 nM
Target sequence in this assay (Q96SW2 whole entry, looked up, one chain of several): as above

[6] = Toxicity in NOD/SCID mouse xenografted with human RS4-11 cells assessed as pathological change in liver at 25 mg/kg,iv qd administration for 5 consecutive days by hematoxylin and eosin staining based microscopic analysis; type: organism-based; conditions: in vivo
[7] = Toxicity in NOD/SCID mouse xenografted with human RS4-11 cells assessed as change in body weight at 25 mg/kg,iv qd administration for 5 consecutive days; type: organism-based; conditions: in vivo
RS4-11 [8] = assay: Induction of apoptosis in human RS4-11 cells incubated for 48 hrs Annexin V-FITC/PI staining based flow cytometry analysis; type: functional, cell-based
RS4-11 [9] = assay: Induction of cell cycle arrest in human RS4-11 cells assessed as accumulation of cells at G1 phase incubated for 48 hrs by propidium iodide staining based flow cytometry analysis; type: functional
[10] = molecular target: T1, Protein cereblon/PCNA-associated factor; assay: PROTAC activity at CRBN/PCLAF in human RS4-11 cells assessed as degradation of PCLAF protein at 40 nM incubated for 40 mins by DARTS analysis; type: cell-based
Target sequence in this assay (Q96SW2 whole entry, looked up, one chain of several): as above

[11] = Toxicity in NOD/SCID mouse xenografted with human RS4-11 cells assessed as pathological change in heart at 25 mg/kg,iv qd administration for 5 consecutive days by hematoxylin and eosin staining based microscopic analysis; type: organism-based; conditions: in vivo
RS4-11 [12] = assay: Induction of apoptosis in human RS4-11 cells assessed as upregulation of Bax level at 10 to 100 nM by Western blotting analysis; type: functional, cell-based; conditions: dose 10-100 nM
[13] = Toxicity in NOD/SCID mouse xenografted with human RS4-11 cells assessed as maximum tolerated dose at IV administration for 5 consecutive days; conditions: in vivo
PCNA-associated factor = molecular target: T2, PCNA-associated factor (Homo sapiens, UniProt Q15004); assay: Binding affinity to PCLAF (unknown origin) assessed as equilibrium dissociation constant by SPR assay
T2 sequence (Q15004 whole entry): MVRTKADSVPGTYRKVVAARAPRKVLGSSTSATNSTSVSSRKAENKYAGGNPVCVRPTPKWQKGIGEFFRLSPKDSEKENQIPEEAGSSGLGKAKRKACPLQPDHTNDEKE

RS4-11 [14] = assay: Induction of apoptosis in human RS4-11 cells assessed as downregulation of Bcl-2 level at 10 to 100 nM by Western blotting analysis; type: functional, cell-based; conditions: dose 10-100 nM
[15] = Toxicity in NOD/SCID mouse xenografted with human RS4-11 cells assessed as pathological change in kidney at 25 mg/kg,iv qd administration for 5 consecutive days by hematoxylin and eosin staining based microscopic analysis; type: organism-based; conditions: in vivo
[16] = Toxicity in NOD/SCID mouse xenografted with human RS4-11 cells assessed as adverse effect at 1 mg/kg,iv qd administration for 5 consecutive days; type: organism-based; conditions: in vivo
[17] = molecular target: T1, Protein cereblon/PCNA-associated factor; assay: PROTAC activity at CRBN/PCLAF in human RS4-11 cells assessed as degradation of PCLAF protein at 100 nM incubated for 12 hrs in presence of pomalidomide by Western blotting analysis; type: cell-based
Target sequence in this assay (Q96SW2 whole entry, looked up, one chain of several): as the sequence (Q96SW2 whole entry, looked up, one chain of several) above

[18] = molecular target: T1, Protein cereblon/PCNA-associated factor; assay: PROTAC activity at CRBN/PCLAF in human RS4-11 cells assessed as degradation of PCLAF protein by Western blotting analysis; type: cell-based
Target sequence in this assay (Q96SW2 whole entry, one chain of several): as the sequence (Q96SW2 whole entry, looked up, one chain of several) above

[19] = Toxicity in NOD/SCID mouse xenografted with human RS4-11 cells assessed as adverse effect at 5 mg/kg,iv qd administration for 5 consecutive days; type: organism-based; conditions: in vivo
[20] = molecular target: T1, Protein cereblon/PCNA-associated factor; assay: PROTAC activity at CRBN/PCLAF in human RS4-11 cells assessed as upregulation of p21 protein at 10 to 100 nM by Western blotting analysis; type: cell-based; conditions: dose 10-100 nM
[21] = molecular target: T1, Protein cereblon/PCNA-associated factor; assay: PROTAC activity at CRBN/PCLAF in human RS4-11 cells assessed as maximal degradation of PCLAF protein at 24 hr by Western blotting analysis; type: cell-based
[22] = Toxicity in NOD/SCID mouse xenografted with human RS4-11 cells assessed as change in body weight at 1 mg/kg,iv qd administration for 5 consecutive days; type: organism-based; conditions: in vivo
[23] = molecular target: T1, Protein cereblon/PCNA-associated factor; assay: PROTAC activity at CRBN/PCLAF in human RS4-11 cells assessed as degradation of PCLAF protein at 100 nM incubated for 12 hrs in presence of SM1044 by Western blotting analysis; type: cell-based
RS4-11 [24] = assay: Antitumor activity against human RS4-11 cells xenografted in NOD/SCID mouse assessed as tumor growth inhibition at 1 mg/kg,iv administration for 5 consecutive days; type: functional, organism-based
[25] = molecular target: T1, Protein cereblon/PCNA-associated factor; assay: PROTAC activity at CRBN/PCLAF in human RS4-11 cells assessed as degradation of PCLAF protein at 100 nM measured after 24 hr of compound washout by Western blotting analysis; type: cell-based
[26] = molecular target: T1, Protein cereblon/PCNA-associated factor; assay: PROTAC activity at CRBN/PCLAF in human RS4-11 cells assessed as degradation of PCLAF protein at 100 nM incubated for 12 hrs by Western blotting analysis; type: cell-based
[27] = molecular target: T1, Protein cereblon/PCNA-associated factor; assay: PROTAC activity at CRBN/PCLAF in human RS4-11 cells assessed as degradation of PCLAF protein at 100 nM incubated for 12 hrs in presence of MG132 by Western blotting analysis; type: cell-based
RS4-11 [28] = assay: Induction of apoptosis in human RS4-11 cells assessed as increase in late apoptosis at 10 to 200 nM incubated for 48 hrs Annexin V-FITC/PI staining based flow cytometry analysis; type: functional, cell-based; conditions: dose 10-200 nM
RS4-11 [29] = assay: Antitumor activity against human RS4-11 cells xenografted in NOD/SCID mouse assessed as tumor growth inhibition at 5 mg/kg,iv administration for 5 consecutive days; type: functional, organism-based
RS4-11 [30] = assay: Induction of apoptosis in human RS4-11 cells assessed as increase in early apoptosis at 10 to 200 nM incubated for 48 hrs Annexin V-FITC/PI staining based flow cytometry analysis; type: functional, cell-based; conditions: dose 10-200 nM
RS4-11 [31] = assay: Antitumor activity against human RS4-11 cells xenografted in NOD/SCID mouse assessed as increase in survival day at IV administration for 5 consecutive days; type: functional
[32] = Oral bioavailability in Sprague-Dawley rat at 50 mg/kg measured upto 24 hrs by LC-MS/MS analysis; type: ADME, organism-based; conditions: in vivo
[33] = molecular target: T3, PCNA-associated factor (Homo sapiens) (UniProt Q15004); assay: Binding affinity to PCLAF in human RS4-11 cells assessed as thermal stability at 100 uM incubated for 60 mins by CETSA assay; type: cell-based
T3 sequence (whole entry): T2 sequence (Q15004 whole entry)

[34] = Toxicity in NOD/SCID mouse xenografted with human RS4-11 cells assessed as change in body weight at 5 mg/kg,iv qd administration for 5 consecutive days; type: organism-based; conditions: in vivo

## C[C@@H]1CCC2[C@@H](C)[C@@H](OCCN(CCO[C@H]3O[C@@H]4O[C@@]5(C)CCC6[C@H](C)CCC([C@H]3C)[C@]64OO5)C(=O)CCCCCCNc3cccc4c3C(=O)N(C3CCC(=O)NC3=O)C4=O)O[C@@H]3O[C@@]4(C)CCC1[C@@]23OO4 (stereo partly drawn)
RS4-11 [1]
  IC50: 79.4 nM
U-266
  IC50: 265 nM
RPMI-8226
  IC50: 104 nM

## C[C@@H]1CCC2[C@@H](C)[C@@H](OCCN(CCO[C@H]3O[C@@H]4O[C@@]5(C)CCC6[C@H](C)CCC([C@H]3C)[C@]64OO5)C(=O)CCCCCCCNc3cccc4c3C(=O)N(C3CCC(=O)NC3=O)C4=O)O[C@@H]3O[C@@]4(C)CCC1[C@@]23OO4 (stereo partly drawn)
[2]
  Emax: 95%
[3]
  Activity: Active
[4]
  Activity: Active
[5]
  Activity: Active
[6]
  Activity: Non-Toxic
[7]
  Activity: Non-Toxic
RS4-11 [8]
  Activity: Dose-Dependent Effect
RS4-11 [9]
  Activity: Dose-Dependent Effect
[10]
  Activity: inactive
[11]
  Activity: Non-Toxic
RS4-11 [12]
  Activity: Active
RS4-11 [1]
  IC50: 50.6 nM
[13]
  MTD at 5 days: 25 mg/kg
PCNA-associated factor
  Kd: 6100 nM
RS4-11 [14]
  Activity: Active
[15]
  Activity: Non-Toxic
[16]
  Activity: Non-Toxic
[17]
  Activity: inactive
[18]
  DC50: 54.9 nM
[19]
  Activity: Non-Toxic
[20]
  Activity: Active
[21]
  Activity: Active
[22]
  Activity: Non-Toxic
[23]
  Activity: inactive
RS4-11 [24]
  Activity: Active
[25]
  Activity: inactive
U-266
  IC50: 343 nM
[26]
  Activity: Active
[27]
  Activity: inactive
RS4-11 [28]
  Activity: Active
RS4-11 [29]
  Activity: Active
RS4-11 [30]
  Activity: Active
RPMI-8226
  IC50: 235 nM
RS4-11 [31]
  Activity: Dose-Dependent Effect
[32]
  bioavailability: 24%
[33]
  Activity: Active
[34]
  Activity: Non-Toxic

## C[C@H]1[C@@H](OCCNCCO[C@H]2O[C@@H]3O[C@]4(C)CC[C@H]5[C@H](C)CC[C@@H]([C@H]2C)[C@@]35OO4)O[C@@H]2O[C@]3(C)CC[C@H]4[C@H](C)CC[C@@H]1[C@@]24OO3
RS4-11 [1]
  IC50: 641 nM
PCNA-associated factor
  Kd: 183000 nM
U-266
  IC50: > 1000 nM
RPMI-8226
  IC50: > 1000 nM

## C[C@@H]1CCC2[C@@H](C)[C@@H](OCCN(CCO[C@H]3O[C@@H]4O[C@@]5(C)CCC6[C@H](C)CCC([C@H]3C)[C@]64OO5)C(=O)CCCCNc3cccc4c3C(=O)N(C3CCC(=O)NC3=O)C4=O)O[C@@H]3O[C@@]4(C)CCC1[C@@]23OO4 (stereo partly drawn)
RS4-11 [1]
  IC50: 243 nM
U-266
  IC50: > 1000 nM
RPMI-8226
  IC50: > 1000 nM

## C[C@@H]1CCC2[C@@H](C)[C@@H](OCCN(CCO[C@H]3O[C@@H]4O[C@@]5(C)CCC6[C@H](C)CCC([C@H]3C)[C@]64OO5)C(=O)CCCCCCCCNc3cccc4c3C(=O)N(C3CCC(=O)NC3=O)C4=O)O[C@@H]3O[C@@]4(C)CCC1[C@@]23OO4 (stereo partly drawn)
RS4-11 [1]
  IC50: 72.4 nM
U-266
  IC50: 407 nM
RPMI-8226
  IC50: 322 nM

## C[C@@H]1CCC2[C@@H](C)[C@@H](OCCN(CCO[C@H]3O[C@@H]4O[C@@]5(C)CCC6[C@H](C)CCC([C@H]3C)[C@]64OO5)C(=O)CCCCCNc3cccc4c3C(=O)N(C3CCC(=O)NC3=O)C4=O)O[C@@H]3O[C@@]4(C)CCC1[C@@]23OO4 (stereo partly drawn)
RS4-11 [1]
  IC50: 96.8 nM
U-266
  IC50: 543 nM
RPMI-8226
  IC50: 148 nM
